According to US11466044B2 (WAYNE STATE UNIVERSITY, priority 2017, dated 2022):
≈ marks a conversion by molar mass, not a printed value. Where two headings read alike, the source gives them in different places.

Legend:
[1] = test system: mitochondrial ribosome (human chimeric); type: biochemical; conditions: mitochondrial, read-out: IC50 Mit
Source text: (§1) The antiribosomal activity of these compounds was investigated with cell-free translation assays using both wild type bacterial ribosomes and hybrid ribosomes carrying eukaryotic decoding A sites enabling the prediction of selectivity.

[2] = test system: cytosolic ribosome (human chimeric); type: biochemical; conditions: cytosolic, read-out: IC50 Cyt
Source text: as §1

[3] = test system: wild type bacterial ribosomes; assay: in-vitro translation assay, bacterial ribosomes; type: biochemical; conditions: bacterial ribosome; Table 3 (Example 1); read-out: IC50 Bac
Source text: as §1

E coli wild type = assay: MIC by broth microdilution, wild type E coli; type: cell-based; conditions: for MIC: Escherichia coli
[4] = test system: E coli carrying specific resistance determinants; assay: MIC by broth microdilution, E coli carrying specific resistance determinants; type: cell-based; conditions: for MIC APH(3)-VI / MIC APH(3′)-I / MIC APH(3′)-II / MIC APH(3′)-III: Table 3 (Example 1); for MIC: Escherichia coli
[5] = clinical isolate AG160 WT, Table 2 (Example 4), read-out: MIC AG160 E. coli WT
[6] = engineered strain pH430 WT, Table 2 (Example 4), read-out: MIC pH430 E. coli WT
[7] = read-out: MIC AG037 E. coli APH(3′)-III
[8] = ATCC25922, strain AG212 E. coli (ATCC25922), read-out: MIC AG212 E. coli
[9] = read-out: MIC WT, WT, Table 3 (Example 2)

NC[C@@H]1O[C@H](O[C@H]2[C@@H](O)[C@H](O[C@@H]3[C@@H](O)[C@H](N)C[C@H](N)[C@H]3O[C@H]3O[C@H](CN)[C@@H](O)C[C@H]3N)O[C@@H]2CO)[C@H](N)[C@@H](O)[C@@H]1O [Compound 140] gave an IC50 ([1]; Table 3 (Example 1)) of 4.6 µM, an IC50 ([2]; Table 3 (Example 1)) of 66 µM and an IC50 [3] of 40 nM. The “MIC WT” value (E coli wild type; WT, Table 3 (Example 1)) was 1 µg/mL (≈ 1.67 µM), the “MIC AG160 E. coli WT” value (E coli wild type; clinical isolate AG160 WT, Table 2 (Example 4)) was 1 µg/mL (≈ 1.67 µM) and the “MIC pH430 E. coli WT” value (E coli wild type; engineered strain pH430 WT, Table 2 (Example 4)) was 1 μg/ml. For the same compound, the “MIC APH(3)-VI” value [4] was 1 µg/mL (≈ 1.67 µM), the “MIC APH(3′)-I” value [4] was greater than 32 µg/mL and the “MIC APH(3′)-II” value [4] was 1 µg/mL (≈ 1.67 µM). For the same compound, the “MIC APH(3′)-III” value [4] was 32 µg/mL (≈ 53.5 µM), the “MIC AG163 E. coli APH(3′)-I” value ([4]; clinical isolate AG163 APH(3′)-I, Table 2 (Example 4)) was 64 µg/mL (≈ 107 µM) and the “MIC AG166 E. coli APH(3′)-II” value ([4]; clinical isolate AG166 APH(3′)-II, Table 2 (Example 4)) was 1 µg/mL (≈ 1.67 µM). For the same compound, the “MIC AG037 E. coli APH(3′)-III” value ([4]; engineered strain AG037 APH(3′)-III, Table 2 (Example 4)) was 32 µg/mL (≈ 53.5 µM), the “MIC pH421 E. coli APH(3′)-I” value ([4]; engineered strain pH421 APH(3′)-I, Table 2 (Example 4)) was greater than 32 μg/ml and the “MIC pH422 E. coli APH(3′)-II” value ([4]; engineered strain pH422 APH(3′)-II, Table 2 (Example 4)) was 1 μg/ml. For the same compound, the “MIC pH423 E. coli APH(3′)-VI” value ([4]; engineered strain pH423 APH(3′)-VI, Table 2 (Example 4)) was 1 μg/ml.
CC(=O)NC[C@H]1O[C@@H](O[C@@H]2C(O)[C@H](N)CC(N)[C@H]2O[C@H]2OC(CN)[C@@H](O)[C@H](O)C2N)C(O)[C@H]1O (stereo partly shown) [Compound 129] was tested, and the MIC (E coli wild type; [5]) was 64 µg/mL (≈ 129 µM), the MIC (E coli wild type; [6]) was 32 µg/mL (≈ 64.6 µM) and the MIC [4, 7] was greater than 64 µg/mL.
NC[C@@H]1O[C@H](O[C@@H]2C(O)[C@H](O[C@@H]3C(O)[C@H](N)CC(N)[C@H]3O[C@H]3OC4C(O)CCO[C@H]4[C@H](O)C3N)O[C@@H]2CO)C(N)C(O)[C@@H]1O (stereo partly shown) [Compound 211] gave an MIC (E coli wild type; [8]) of 32 to 64 µg/mL (≈ 49.9 to 99.7 µM).
NC[C@@H]1O[C@H](O[C@@H]2C(O)[C@H](O[C@@H]3C(O)[C@H](N)CC(N)[C@H]3O[C@H]3OC4C(O)CCCO[C@H]4[C@H](O)C3N)O[C@@H]2CO)C(N)C(O)[C@@H]1O (stereo partly shown) [DC-196] was tested, and the IC50 ([1]; Table 3 (Example 2)) was 0.14 µM, the IC50 ([2]; Table 3 (Example 2)) was 200 µM and the MIC (E coli wild type; [9]) was 4 µg/mL (≈ 6.1 µM). The MIC ([4]; read-out: MIC AAC(6′)) was 4 µg/mL (≈ 6.1 µM), the MIC ([4]; read-out: MIC ANT(4′)) was 2 µg/mL (≈ 3.05 µM) and the MIC ([4]; read-out: MIC APH(3′)-II) was 16 µg/mL (≈ 24.4 µM). For the same compound, the MIC ([4]; read-out: MIC APH(3′)-VI) was 16 µg/mL (≈ 24.4 µM).
For NC[C@H]1O[C@H](O[C@H]2[C@H](O[C@@H]3O[C@H](CN)[C@@H](O)[C@H]3O)[C@@H](O)[C@H](N)C[C@@H]2N)[C@H](N)[C@@H](O)[C@@H]1O [Compound 048], the IC50 ([1]; Table 3 (Example 1)) was 76 µM, the IC50 [3] was 90 nM and the “MIC WT” value (E coli wild type; WT, Table 3 (Example 1)) was 2 to 4 µg/mL. For the same compound, the “MIC APH(3)-VI” value [4] was 64 µg/mL (≈ 141 µM), the “MIC APH(3′)-I” value [4] was greater than 64 µg/mL and the “MIC APH(3′)-II” value [4] was greater than 64 µg/mL. For the same compound, the “MIC APH(3′)-III” value [4] was greater than 64 µg/mL.
Compound NCC1OC(OC2C(N)CC(N)C(O)C2OC2OC(CNC=O)C(O)C2O)C(N)C(O)C1O (stereo not shown) [Compound 130] has an IC50 ([1]; Table 3 (Example 1)) of 364 µM, an IC50 ([2]; Table 3 (Example 1)) of 359 µM and an IC50 [3] of 240 nM. The MIC (E coli wild type; WT, Table 3 (Example 1), read-out: MIC WT) was 4 µg/mL (≈ 8.31 µM), the MIC (E coli wild type; [5]) was 16 µg/mL (≈ 33.2 µM) and the MIC (E coli wild type; [6]) was 4 µg/mL (≈ 8.31 µM). For the same compound, the MIC [4, 7] was greater than 128 µg/mL, the MIC ([4]; read-out: MIC AG163 E. coli APH(3′)-I) was greater than 128 µg/mL and the MIC ([4]; read-out: MIC AG166 E. coli APH(3′)-II) was greater than 128 µg/mL. For the same compound, the MIC ([4]; read-out: MIC APH(3)-VI) was greater than 64 µg/mL, the MIC ([4]; read-out: MIC APH(3′)-I) was greater than 64 µg/mL and the MIC ([4]; read-out: MIC APH(3′)-II) was greater than 64 µg/mL. The MIC ([4]; read-out: MIC APH(3′)-III) was greater than 64 µg/mL, the MIC ([4]; read-out: MIC pH421 E. coli APH(3′)-I) was greater than 64 µg/mL and the MIC ([4]; read-out: MIC pH422 E. coli APH(3′)-II) was greater than 64 µg/mL. It also gave an MIC ([4]; read-out: MIC pH423 E. coli APH(3′)-VI) greater than 64 µg/mL.
NCC1O[C@H](O[C@@H]2C(O)[C@H](O[C@@H]3C(O)[C@H](N)CC(N)[C@H]3O[C@H]3OC4C(O)CO[C@H]4[C@H](O)C3N)O[C@@H]2CO)C(N)[C@H](O)[C@@H]1O (stereo partly shown) [DC-204] was tested, and the IC50 ([1]; Table 3 (Example 2)) was 0.2 µM, the IC50 ([2]; Table 3 (Example 2)) was 131 µM and the MIC (E coli wild type; [9]) was 8 µg/mL (≈ 12.7 µM). For the same compound, the MIC ([4]; read-out: MIC AAC(6′)) was 16 µg/mL (≈ 25.5 µM), the MIC ([4]; read-out: MIC ANT(4′)) was 4 to 8 µg/mL (≈ 6.37 to 12.7 µM) and the MIC ([4]; read-out: MIC APH(3′)-II) was 16 to 32 µg/mL (≈ 25.5 to 51 µM). It also gave an MIC ([4]; read-out: MIC APH(3′)-VI) of 16 µg/mL (≈ 25.5 µM).
NCC1O[C@H](O[C@@H]2C(O)[C@H](O[C@@H]3C(O)[C@H](N)CC(N)[C@H]3O[C@H]3OC4C(O)CO[C@H]4[C@H](O)C3N)O[C@@H]2CO)C(N)[C@H](O)[C@@H]1O (stereo partly shown) [Compound 203] was tested, and the MIC (E coli wild type; [8]) was 32 µg/mL (≈ 51 µM).
In the case of CC[C@@H]1C(CO)O[C@H](O[C@@H]2C(N)C[C@@H](N)C(O)[C@H]2O[C@@H]2O[C@H](CO)[C@H](O[C@H]3OC(CN)[C@@H](O)C(O)C3N)C2O)[C@@H](N)C1O (stereo partly shown) [Compound 206], the MIC (E coli wild type; [8]) is reported as 8 µg/mL (≈ 12.7 µM).
Work on NC[C@H]1O[C@H](O[C@H]2[C@H](O[C@@H]3O[C@H](CO)[C@@H](O)[C@H]3O)[C@@H](O)[C@H](N)C[C@@H]2N)[C@H](N)C[C@@H]1O [Compound 047] yielded an IC50 ([1]; Table 3 (Example 1)) of 325 µM, an IC50 ([2]; Table 3 (Example 1)) of 293 µM and an IC50 [3] of 100 nM. For the same compound, the “MIC WT” value (E coli wild type; WT, Table 3 (Example 1)) was 2 to 4 µg/mL, the “MIC APH(3)-VI” value [4] was 4 µg/mL (≈ 9.12 µM) and the “MIC APH(3′)-I” value [4] was greater than 64 µg/mL. For the same compound, the “MIC APH(3′)-II” value [4] was 2 to 4 µg/mL and the “MIC APH(3′)-III” value [4] was greater than 64 µg/mL.
